Read-outs that look alike come from different tables or passages of the source.

The assay concerns HBsAg secretion in HepG2.2.15 cells. The experiment in a line: HBsAg assay (chemiluminescence immunoassay of secreted HBsAg in culture supernatant). Format: cell-based, HBV. Particulars: concentration at which HBsAg secretion was reduced by 50% compared to the no drug control, read-out: IC50 (HBsAg assay). Here is the method:
HepG2.2.15 cells (Acs et al. Proc Natl Acad Sci USA, 84, (1987), 4641-4), a constitutively HBV-expressing cell line were cultured in DMEM+Glutamax-I medium (Invitrogen, Carlsbad, Calif., USA), supplemented with 10% fetal bovine serum (Invitrogen) and G418 (Invitrogen) at a final concentration of 200 mg/L and maintained in 5% CO2 at 37° C.
HepG2.2.15 cells were seeded in duplicate into white, 96-well plates at 1.5×10^4 cells/well. The cells were treated with a three-fold serial dilution series of the compounds in DMSO. The final DMSO concentration in all wells was 1% and DMSO was used as no drug control.
The HBsAg chemiluminescence immunoassay (CLIA) kit (Autobio Diagnostics Co., Zhengzhou, China, Catalog number: CL0310-2) was used to measure the levels of secreted HBV antigens semi-quantitatively. For the detection 50 μL/well culture supernatant was used and HBsAg was quantified using HBsAg chemiluminescence immunoassay (CLIA) kit (Autobio Diagnostics Co., Zhengzhou, China, Catalog number: CL0310-2), 50 μL of the supernatant was transferred to the CLIA assay plate and 50 μL of enzyme conjugate reagent was added into each well. The plates were sealed and gently agitated for 1 hour at room temperature. The supernatant-enzyme-mixture was discarded and wells were washed 6 times with 300 μL of PBS. The residual liquid was removed by plating the CLIA plate […] on absorbent tissue paper. 25 μL of substrates A and B were added to each well. Luminance was measured using a luminometer (Mithras LB 940 Multimode Microplate Reader) after 10 minutes incubation. Dose-response curves were generated and the IC50 value was extrapolated by using the E-WorkBook Suite (ID Business Solutions Ltd., Guildford, UK). The IC50 was defined as the compound concentration (or conditioned media log dilution) at which HBsAg secretion was reduced by 50% compared to the no drug control.
The compounds according to formula I were tested for their capacity to inhibit HBsAg as described herein.

[1] abbreviates: Hepatitis B virus, HepG2.2.15, HepG2.2.15 cells.

On to `CC1c2cnc(-c3ncccn3)nc2CCN1c1cc(F)c(F)c(OCCCN2CCNCC2=O)c1` (stereo not shown) [Example 99, 1-[3-[2,3-difluoro-5-(5-methyl-2-pyrimidin-2-yl-7,8-dihydro-5H-pyrido[4,3-d]pyrimidin-6-yl)phenoxy]propyl]piperazin-2-one], for which the IC50 under setting [1] stood at 1270 nM. As to `CC1c2cnc(-c3ncccn3)nc2CCN1c1cc(F)c(F)c(OCC(F)F)c1` (stereo not shown) [Example 70, 6-[3-(2,2-difluoroethoxy)-4,5-difluoro-phenyl]-5-methyl-2-pyrimidin-2-yl-7,8-dihydro-5H-pyrido[4,3-d]pyrimidine], under setting [1], the IC50 was 26 nM. Same read-out and setting: the figure for `CC(=O)N1CCN(CCCOc2cc(N3CCc4nc(-c5ncccn5)ncc4C3C)cc(F)c2F)CC1` (stereo not shown) [Example 109, 1-[4-[3-[2,3-difluoro-5-(5-methyl-2-pyrimidin-2-yl-7,8-dihydro-5H-pyrido[4,3-d]pyrimidin-6-yl)phenoxy]propyl]piperazin-1-yl]ethanone] is 80 nM. Still for that read-out and setting: the figure for `CC1c2cnc(-c3ncccn3)nc2CCN1c1cc(F)c(F)c(OCCCNC(=O)CCCCl)c1` (stereo not shown) [Example 95, 4-chloro-N-[3-[2,3-difluoro-5-(5-methyl-2-pyrimidin-2-yl-7,8-dihydro-5H-pyrido[4,3-d]pyrimidin-6-yl)phenoxy]propyl]butanamide] is 724 nM; for `CC1c2cnc(-c3ccccn3)nc2CCN1c1cc(F)c(F)c(OCC(=O)O)c1` (stereo not shown) [Example 28, 2-[2,3-difluoro-5-[5-methyl-2-(2-pyridyl)-7,8-dihydro-5H-pyrido[4,3-d]pyrimidin-6-yl]phenoxy]acetic acid] it is 3080 nM; for `COCCS(=O)(=O)NCCCOc1cc(N2CCc3nc(-c4ncccn4)ncc3C2C)cc(F)c1F` (stereo not shown) [Example 94, N-[3-[2,3-difluoro-5-(5-methyl-2-pyrimidin-2-yl-7,8-dihydro-5H-pyrido[4,3-d]pyrimidin-6-yl)phenoxy]propyl]-2-methoxy-ethanesulfonamide] it is 70 nM. As to `CC1c2cnc(-c3ncccn3)nc2CCN1c1cc(F)c(F)c(OCC(F)(F)F)c1` (stereo not shown) [Example 69, 6-[3,4-difluoro-5-(2,2,2-trifluoroethoxy)phenyl]-5-methyl-2-pyrimidin-2-yl-7,8-dihydro-5H-pyrido[4,3-d]pyrimidine], under setting [1], the half-maximal inhibitory concentration (IC50) worked out at 33 nM. Still for that read-out and setting: with `CC1c2cnc(-c3ncccn3)nc2CCN1c1cc(OCC2CCCO2)cc(F)n1` (stereo not shown) [Example 166, 6-[6-fluoro-4-(tetrahydrofuran-2-ylmethoxy)-2-pyridyl]-5-methyl-2-pyrimidin-2-yl-7,8-dihydro-5H-pyrido[4,3-d]pyrimidine] the figure was 19 nM; with `CC1c2cnc(-c3ncccn3)nc2CCN1c1cc(F)c(F)c(OCCC2CNC2)c1` (stereo not shown) [Example 116, 6-[3-[2-(azetidin-3-yl)ethoxy]-4,5-difluoro-phenyl]-5-methyl-2-pyrimidin-2-yl-7,8-dihydro-5H-pyrido[4,3-d]pyrimidine], 902 nM. Take `CC1c2cnc(-c3ncccn3)nc2CCN1c1cc(F)c(F)c(OC2CCOC2)c1` (stereo not shown) [Example 121, 6-(3,4-difluoro-5-tetrahydrofuran-3-yloxy-phenyl)-(5R/S)-methyl-2-pyrimidin-2-yl-7,8-dihydro-5H-pyrido[4,3-d]pyrimidine]: the IC50 (HepG2.2.15 cells) was found to be 42 nM. On to `COCCCNS(=O)(=O)c1cc(F)cc(N2CCc3nc(-c4ncccn4)ncc3C2C)c1` (stereo not shown) [Example 182, 3-fluoro-N-(3-methoxypropyl)-5-(5-methyl-2-pyrimidin-2-yl-7,8-dihydro-5H-pyrido[4,3-d]pyrimidin-6-yl)benzenesulfonamide], for which the half-maximal inhibitory concentration (IC50) under setting [1] amounted to 2240 nM. With `CC1c2cnc(-c3ncccn3)nc2CCN1c1cc(OCCCC(=O)O)cc(F)n1` (single isomer, unassigned; (-)) [Example 184, (−)-4-[[2-fluoro-6-[5-methyl-2-pyrimidin-2-yl-7,8-dihydro-5H-pyrido[4,3-d]pyrimidin-6-yl]-4-pyridyl]oxy]butanoic acid], the IC50 under setting [1] is 182 nM. Still for that read-out and setting: the figure for `COC(=O)c1cc(F)cc(N2CCc3nc(-c4ncccn4)ncc3C2C)c1` (stereo not shown) [Example 175, methyl 3-fluoro-5-(5-methyl-2-pyrimidin-2-yl-7,8-dihydro-5H-pyrido[4,3-d]pyrimidin-6-yl)benzoate] is 1460 nM; for `CC1c2cnc(-c3ccccn3)nc2CCN1c1ccc(S(C)(=O)=O)cc1` (stereo not shown) [Example 23, 5-methyl-6-(4-methylsulfonylphenyl)-2-(2-pyridyl)-7,8-dihydro-5H-pyrido[4,3-d]pyrimidine] it is 1490 nM; for `CC1c2cnc(-c3ccccn3)nc2CCN1c1cc(F)cc(N(C)C)n1` (stereo not shown) [Example 217, 4-fluoro-N,N-dimethyl-6-[5-methyl-2-(2-pyridyl)-7,8-dihydro-5H-pyrido[4,3-d]pyrimidin-6-yl]pyridin-2-amine] it is 28 nM. Take `CC1c2cnc(-c3ccccn3)nc2CCN1c1cc(OCCCOCC(N)=O)cc(F)n1` (stereo not shown) [Example 186]: the IC50 under setting [1] came to 18 nM. Take `CC1c2cnc(-c3ncccn3)nc2CCN1c1cc(F)c(F)c(OCCCS(C)(=O)=O)c1` (single isomer, unassigned; (+)) [Example 48, (+)-6-[3,4-difluoro-5-(3-methylsulfonylpropoxy)phenyl]-5-methyl-2-pyrimidin-2-yl-7,8-dihydro-5H-pyrido[4,3-d]pyrimidine]: under “HepG2.2.15 cells”, the IC50 amounted to 184 nM. The same measure, in the same setting: with `CC1c2cnc(-c3ncccn3)nc2CCN1c1cc(O)c(F)c(F)c1` (single isomer, unassigned; (+)) [Example 46, (+)-2,3-difluoro-5-(5-methyl-2-pyrimidin-2-yl-7,8-dihydro-5H-pyrido[4,3-d]pyrimidin-6-yl)phenol] the figure was 8170 nM; with `CC1c2cnc(-c3ncccn3)nc2CCN1c1cc(F)cc(N2CCNC(=O)C2)n1` (single isomer, unassigned; (-)) [Example 225, (−)-4-[4-fluoro-6-(5-methyl-2-pyrimidin-2-yl-7,8-dihydro-5H-pyrido[4,3-d]pyrimidin-6-yl)-2-pyridyl]piperazin-2-one], 13 nM. As to `COc1cc(F)cc(N2CCc3cc(-c4ncccn4)ncc3C2C)c1` (stereo not shown) [Example 135, 2-(3-fluoro-5-methoxy-phenyl)-1-methyl-6-pyrimidin-2-yl-3,4-dihydro-1H-2,7-naphthyridine], the IC50 under setting [1] came out at 15 nM. Turning to `CC1c2cnc(-c3ncccn3)nc2CCN1c1cc(F)cc(OC2CCOCC2)n1` (stereo not shown) [Example 173, 6-(4-fluoro-6-tetrahydropyran-4-yloxy-2-pyridyl)-5-methyl-2-pyrimidin-2-yl-7,8-dihydro-5H-pyrido[4,3-d]pyrimidine], under setting [1], the IC50 stood at 132 nM.

For the compound `CCOC(=O)CCCCCCOc1cc(N2CCc3nc(-c4ncccn4)ncc3C2C)cc(F)c1F` (stereo not shown) [Example 85, ethyl 7-[2,3-difluoro-5-(5-methyl-2-pyrimidin-2-yl-7,8-dihydro-5H-pyrido[4,3-d]pyrimidin-6-yl)phenoxy]heptanoate], the half-maximal inhibitory concentration (IC50) under setting [1] was 156 nM. For the compound `CC1c2cnc(-c3ncccn3)nc2CCN1c1cc(F)cc(N2CCCC2)n1` (stereo not shown) [Example 199, 6-(4-fluoro-6-pyrrolidin-1-yl-2-pyridyl)-5-methyl-2-pyrimidin-2-yl-7,8-dihydro-5H-pyrido[4,3-d]pyrimidine], the IC50 under setting [1] came out at 18 nM.

Turning to `CC1c2cnc(-c3ncccn3)nc2CCN1c1cc(F)c(F)c(OCCC2COC2)c1` (stereo not shown) [Example 79, 6-[3,4-difluoro-5-[2-(oxetan-3-yl)ethoxy]phenyl]-5-methyl-2-pyrimidin-2-yl-7,8-dihydro-5H-pyrido[4,3-d]pyrimidine], under setting [1], the IC50 stood at 15 nM.

Turning to `Cc1cc(N(C)C)nc(N2CCc3nc(-c4ncccn4)ncc3[C@H]2C)n1` [Example 213, (−)-N,N,6-trimethyl-2-[5-methyl-2-pyrimidin-2-yl-7,8-dihydro-5H-pyrido[4,3-d]pyrimidin-6-yl]pyrimidin-4-amine], the IC50 under setting [1] is 65 nM. As for `CC1c2cnc(-c3ncccn3)nc2CCN1c1cc(N2CCCC2)cc(F)n1` (stereo not shown) [Example 198, 6-(6-fluoro-4-pyrrolidin-1-yl-2-pyridyl)-5-methyl-2-pyrimidin-2-yl-7,8-dihydro-5H-pyrido[4,3-d]pyrimidine], the IC50 (HepG2.2.15 cells) is 4 nM. Take `COC(=O)C(C(=O)OC)C1c2cnc(-c3ccccn3)nc2CCN1c1ccc(S(C)(=O)=O)cc1` (stereo not shown) [Example 8]: under setting [1], the IC50 came to 19600 nM.

With `CC1c2cnc(-c3ccccn3)nc2CCN1c1cc(F)c(F)c(OCC(N)=O)c1` (stereo not shown) [Example 29, 2-[2,3-difluoro-5-[5-methyl-2-(2-pyridyl)-7,8-dihydro-5H-pyrido[4,3-d]pyrimidin-6-yl]phenoxy]acetamide], the IC50 under setting [1] came to 50 nM.

The values are drawn from US9845322B2 (Hoffmann-La Roche Inc., priority 2016, dated 2017).
